Earlier results, collected in patent US7253193B2, “Cyanoguanidine prodrugs” (LEO Pharma A/S, priority 2002, dated 2007).

Tests used:
[1] = tested on: human lung and breast cancer cell lines
[2] = tested on: human lung cancer tumour xenograft
[3] = tested on: human tumour cells; conditions: also against tumour cells resistant to conventional anticancer drugs such as paclitaxel

N#CNC(=Nc1ccncc1)NCCCCCCOc1ccc(Cl)cc1 [N-(6-(4-chlorophenoxy)hexyl)-N′-cyano-N″-(4-pyridyl)guanidine]
antiproliferative activity in vitro [1]: high antiproliferative activity in vitro
antitumour activity in the nude mouse model [2]: potent antitumour activity
antitumour activity in vivo [3]: substantial antitumour activity
